We go through 1 substance from US20180271930A1, “METHOD FOR RAISING POULTRY” (priority 2015, published 2018).

A short description of assay [1]: Examination 6: body weight at 21 days old after GSSG feed (0.01% or 0.05%) for 3 days. It is filed as in vivo, broiler chicks. The following applies: n = 12. How it is done:
Newly hatched broiler chicks (Ross Breeders Ltd.) were fed with a feed composition containing GSSG at 0.01% by mass or 0.05% by mass for 3 days. […] Three groups, which were a control group, a GSSG addition group (0.01% by mass), and a GSSG addition group (0.05% by mass), were set. In each group, 6 males and 6 females were tested. Chicks received at 0 day old were fed with a test feed composition (initial-phase feed composition) during 72 hours after the receipt. […] Their body weights were measured. A feed composition used as an initial-phase feed composition, for which the level of GSSG was set to 0.01% by mass or […], is a composition prepared by adding GSSG at 0.01% by mass or 0.1% by mass to a composition (ME3,100 kcal/kg, CP21) containing corn, soybean meal, corn gluten meal, fat and oil, calcium carbonate (powder), tricalcium phosphate, dietary salt, DL-methionine, L-lysine chloride, choline chloride, and vitamins/minerals in accordance with the NRC requirements. The feed composition (ME3,100 kcal/kg, CP21) free of GSSG used in Examination 1 was used for the control group. […] An ammonium salt was used as GSSG. The GSSG contained 95.6% by mass of oxidized glutathione, and the content of reduced glutathione mixed therein was 0.1% by mass or less.

Assay [2] relates to myogenin. Description: Examination 1: myogenin gene expression in superficial pectoral muscle (real-time PCR, relative to RPS9). It is filed as in vivo, broiler chicks of the Chunky breed (Ross 308). The following applies: 3 days old, GSSG addition group (0.01% or 0.1% feed), FIG. 1B, n=6. The source says: (§1) FIGS. 1A to 1D illustrate graphs showing the expression of genes related to skeletal muscle cell differentiation in superficial pectoral muscles upon administration of each feed composition in Examination 1 (n=6). […] A relative value of the expression level of each factor is expressed as an average±standard deviation of values obtained by dividing the expression levels of each factor by the expression level of RPS9. Each different symbol denotes a significant difference in the […] multiple comparison test (P<0.05). Newly hatched broiler chicks of the Chunky breed (Ross 308, Ross Breeders Ltd.) were tested. […] Real-time PCR was performed by adding cDNA, a primer set, and other necessary reagents to wells of a 96-well PCR plate, preheating the plate using a thermal cycler at 95° C. for 3 minutes, followed by 35 cycles of steps of denaturation, annealing, and elongation in a repetitive manner, and measurement of […] after the elongation step for each cycle. The expression level of each gene was designated as a relative value obtained by dividing the determined amount of an amplification product of IGF-I, myostatin, MyoD, or myogenin by the amount of an amplification product of RPS9. […] The amount of GSSG used herein was determined in terms of the amount of free oxidized glutathione. […]

In assay [3] the test system is myogenin. Description: Examination 4: myogenin gene expression in superficial pectoral muscle at 3 days old. It counts as in vivo, broiler chicks. The note with it: 0.01% by mass additive in feed for 3 days, FIG. 3A, n=4. How it is done:
FIGS. 3A to 3C illustrate graphs showing the expression of genes related to skeletal muscle cell differentiation in superficial pectoral muscles upon administration of each feed composition in Examination 4 (n=4). […] A relative value of the expression level of each factor is expressed as an average±standard deviation of values obtained by dividing the expression levels of each factor by the expression level of RPS9. Newly hatched broiler chicks (Ross Breeders Ltd.) were tested. A control group (=additive-free group), a GSSG addition group (0.01% by mass), and a GSH addition group (0.01% by mass) each consisting of 5 males and 5 females were set and fed with a feed composition for 3 days. […] At this timing, 2 males and 2 females in each group were slaughtered to collect blood and skeletal muscles. The gene expression levels of the MyoD family (myogenin, myostatin, and Pax7) were observed. […] Statistics were analyzed using a mixed model in consideration of a gender difference and an interaction between males and females. A method for determining gene expressions of the above factors in skeletal muscles is described above. An ammonium salt was used as oxidized glutathione (GSSG). The GSSG contained 95.6% by mass of oxidized glutathione, and the content of reduced glutathione mixed therein was 0.1% by mass or less. […]

Assay [4] can be described thus: Examination 2-1: breeding performance at 21 and 28 days old after GSSG prestarter feed. It counts as in vivo, broiler chicks. The following applies: 0.01% by mass GSSG feed for first 72 h, n = 6. On the procedure:
Newly hatched broiler chicks (Ross Breeders Ltd.) were fed with a feed composition for 3 days. The feed composition contained GSSG at a level of 0.01% by mass which was thought to be appropriate based on Examination 1. […] Two groups, which were a control group and a GSSG addition group (0.01% by mass), were set. In each group, 6 males and 6 females were tested. Chicks received at 0 day old were fed with a test feed composition (initial-phase feed composition) during 72 hours after the receipt. […] Their body weights, breast meat weights, leg meat weights, and liver weights were measured. As the initial-phase feed composition, the feed composition comprising 0.01% by mass of GSSG used in Examination 1 was used for the GSSG addition group, and the feed composition (ME3,100 kcal/kg, CP21) free of GSSG used in Examination 1 was used for the control group. […] An ammonium salt was used as oxidized glutathione (GSSG). The GSSG contained 95.6% by mass of oxidized glutathione, and the content of reduced glutathione mixed therein was 0.1% by mass or less.

In another assay the test system is myostatin. Kind of assay: Examination 1: myostatin gene expression in superficial pectoral muscle (real-time PCR, relative to RPS9). The following applies: 3 days old, GSSG addition group (0.01% or 0.1% feed), FIG. 1C, n=6. It is filed as in vivo, broiler chicks of the Chunky breed (Ross 308).
Description: as §1

Turning to oxidized glutathione [GSSG], the 21-day-old weight in assay [1] (GSSG 0.01% by mass in feed for 3 days) is given as 961 ± 84 g; in assay [1] (GSSG 0.05% by mass in feed for 3 days) it was 986 ± 67 g. Also, the figures for the “myogenin expression level vs control group” value with myogenin [2] and in the assay with myogenin [3] were “significant decreases” and “significantly decreased”, respectively. Further, the Breast meat in assay [4] (21 days old) is listed as 118 ± 4 g; in assay [4] (28 days old) it was 186 ± 15 g. For the same substance, the Leg meat is recorded as 136 ± 6 g in assay [4] (21 days old) and 206 ± 12 g in assay [4] (28 days old). Also, the Weight in assay [4] (21 days old) is 933 ± 65 g; in assay [4] (28 days old) it was 1500 ± 149 g. For the same substance, the “myostatin expression level vs control group” value in the assay with myostatin is reported as “significant decreases”.
